Test results from ChEMBL document CHEMBL5360639, “Cannabidiol Analogue CIAC001 for the Treatment of Morphine-Induced Addiction by Targeting PKM2” (J Med Chem, 2023).
Calls of active or inactive are those of the source. The calls are words filed in the database; no cut-off is given here.

Experiments:
Mus musculus [1] = experiment: Anti-neuroinflammatory activity in morphine-induced BALB/c mouse assessed as inhibition of behavioral sensitization at 0.2 mg/kg, ip administered once daily for 7 days; format: functional, organism-based; details: time 7.0 day
[2] = Cmax in BALB/c mouse at 10 mg/kg, po measured upto 4 hrs by mS-HPLC analysis; format: ADME, organism-based; set-up: time < 4 hrs, dose 10 mg/kg, route po; details: in vivo
[3] = MRT in BALB/c mouse at 10 mg/kg, po measured upto 4 hrs by mS-HPLC analysis; format: ADME, organism-based; details: in vivo
Mus musculus [4] = experiment: Anti-neuroinflammatory activity in morphine-induced BALB/c mouse assessed as […] in locomotor activity 0.2 mg/kg, ip administered once daily for 7 days and measured after 60 mins; format: functional, organism-based; details: time 169.0 hrs
[5] = AUC (0 to t) in BALB/c mouse at 10 mg/kg, po measured upto 4 hrs by mS-HPLC analysis; format: ADME, organism-based; details: in vivo
[6] = Therapeutic index, ratio of IC50 for cytotoxicty against mouse BV-2 cells assessed as reduction in cell viability by crystal violet staining based assay to IC50 for nti-neuroinflammatory activity in mouse BV-2 cells assessed as inhibition of LPS-induced NO production; format: toxicity; details: read-out: Ratio IC50
BV-2 [7] = experiment: Anti-neuroinflammatory activity in LPS-induced mouse BV-2 cells assessed as reduction in IL-1beta mRNA expression at 10 uM by qRT-PCR analysis; format: functional, cell-based
BV-2 [8] = experiment: Anti-neuroinflammatory activity in mouse BV-2 cells assessed as inhibition of LPS-induced NO production incubated for 24 hrs by microplate reader analysis; format: functional, cell-based; details: BV-2, 24 h
Mus musculus [9] = experiment: (§1) Anti-neuroinflammatory activity in naloxone precipitated morphine-induced BALB/c mouse assessed as reduction in naloxone precipitated withdrawal jumps at 0.2 microg/kg, ip administered with morphine 3 times daily for 3 days and on day 4 for 3 hrs prior to compound addition for 30 mins before naloxone addition and measured after 15 mins; format: functional, organism-based; details: dose 0.2 µg/kg, time 45.0 min
[10] = Ratio of drug concentration in blood to plasma in BALB/c mouse at 10 mg/kg, po measured at 3 hrs; format: ADME, organism-based; details: in vivo
BV-2 [11] = experiment: Anti-neuroinflammatory activity in LPS-induced mouse BV-2 cells assessed as reduction in TNF-alpha mRNA expression at 1 to 10 uM by qRT-PCR analysis; format: functional, cell-based; details: dose 1-10 µM
BV-2 [12] = experiment: Anti-neuroinflammatory activity in LPS-induced mouse BV-2 cells assessed as reduction in IL-6 mRNA expression at 1 to 10 uM by qRT-PCR analysis; format: functional, cell-based; details: dose 1-10 µM
[13] = Cytotoxicity against mouse BV-2 cells assessed as reduction in cell viability by crystal violet staining based assay; format: toxicity
[14] = Half life in BALB/c mouse at 10 mg/kg, po measured upto 4 hrs by mS-HPLC analysis; format: ADME, organism-based; details: in vivo
Mus musculus [15] = experiment: Anti-neuroinflammatory activity in morphine-induced BALB/c mouse assessed as inhibition of IL-1beta expression in NAc region 0.2 mg/kg, ip; format: functional, organism-based
[16] = biological target: Pyruvate kinase PKM (Mus musculus) (UniProt P52480); experiment: Binding affinity to PKM1 in mouse BV-2 cells at 20 uM by Western blot analysis; format: cell-based
Pyruvate kinase PKM (Mus musculus), sequence (P52480 whole entry): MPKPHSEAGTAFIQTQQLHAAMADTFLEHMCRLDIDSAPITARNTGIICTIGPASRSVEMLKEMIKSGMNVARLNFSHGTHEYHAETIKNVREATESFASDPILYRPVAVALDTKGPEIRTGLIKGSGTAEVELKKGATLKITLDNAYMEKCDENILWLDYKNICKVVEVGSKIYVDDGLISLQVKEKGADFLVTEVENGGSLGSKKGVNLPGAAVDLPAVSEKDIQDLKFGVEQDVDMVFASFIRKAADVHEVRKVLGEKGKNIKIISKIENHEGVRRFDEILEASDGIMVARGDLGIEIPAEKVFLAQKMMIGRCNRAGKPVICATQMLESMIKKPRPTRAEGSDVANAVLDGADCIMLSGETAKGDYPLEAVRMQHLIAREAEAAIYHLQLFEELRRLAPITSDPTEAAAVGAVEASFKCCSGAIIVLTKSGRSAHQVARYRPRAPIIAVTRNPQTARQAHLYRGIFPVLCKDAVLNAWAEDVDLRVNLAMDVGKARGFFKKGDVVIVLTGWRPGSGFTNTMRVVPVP

Mus musculus [17] = experiment: Inhibition of morphine-induced Hif-1alpha overexpression in BALB/c mouse at 0.2 mg/kg, ip measured for 7 days; format: functional, organism-based; details: time 7.0 day
BV-2 [18] = experiment: Anti-neuroinflammatory activity in LPS-induced mouse BV-2 cells assessed as reduction in iNOS mRNA expression at 10 uM incubated for 24 hrs by qRT-PCR analysis; format: functional, cell-based
Pyruvate kinase PKM = Pyruvate kinase PKM (Mus musculus, UniProt P52480); experiment: Binding affinity to PKM2 in mouse BV-2 cells by Western blot analysis; format: cell-based
Pyruvate kinase PKM, sequence (P52480 whole entry): as above

[19] = Tmax in BALB/c mouse plasma at 10 mg/kg, po measured upto 4 hrs by mS-HPLC analysis; format: ADME, organism-based
[20] = biological target: Pyruvate kinase PKM (Mus musculus) (UniProt P52480); experiment: Competitive inhibition of CIAC001-P1 probe binding to PKM2 in mouse BV-2 cells at 20 uM pretreated for 2 hrs followed by UV light treatment and measured after 30 mins by silver staining based Streptavidin-pull down assay; format: cell-based; details: time 2.5 hrs
[21] = biological target: Pyruvate kinase PKM (Mus musculus) (UniProt P52480); experiment: Competitive inhibition of CIAC001-P2 probe binding to PKM2 in mouse BV-2 cells at 20 uM pretreated for 2 hrs followed by UV light treatment and measured after 30 mins by silver staining based Streptavidin-pull down assay; format: cell-based; details: time 2.5 hrs
BV-2 [22] = experiment: Inhibition of LPS-induced LDH release in mouse BV-2 cells at 10 uM incubated for 6 hrs; format: functional, cell-based
BV-2 [23] = experiment: Anti-neuroinflammatory activity in LPS-induced mouse BV-2 cells assessed as reduction in IL-1beta mRNA expression at 10 uM incubated for 24 hrs by qRT-PCR analysis; format: functional, cell-based
BV-2 [24] = experiment: Anti-neuroinflammatory activity in LPS-induced mouse BV-2 cells assessed as reduction in TNF-alpha mRNA expression by qRT-PCR analysis; format: functional, cell-based; details: dose 1-10 µM
Mus musculus [25] = experiment: Anti-neuroinflammatory activity in morphine-induced BALB/c mouse assessed as inhibition of IL-1beta expression in mPFC region 0.2 mg/kg, ip; format: functional, organism-based
[26] = Toxicity in BALB/c mouse assessed as effect on grooming behavior at 20 mg/kg, ip measured administered once daily for 7 days and measured after 24 hrs by open field test; format: organism-based; details: in vivo, 192 h
[27] = Toxicity in BALB/c mouse assessed as effect on respiratory rate at 20 mg/kg, ip measured on day 2 and 5; format: organism-based; details: in vivo, 120 h, time 5 day
Mus musculus [28] = experiment: Anti-neuroinflammatory activity in morphine-induced BALB/c mouse assessed as inhibition of Iba1 expression in mPFC region 0.2 mg/kg, ip; format: functional, organism-based
[29] = biological target: Pyruvate kinase PKM (Mus musculus) (UniProt P52480); experiment: Binding affinity to PKM2 in mouse BV-2 cells at 20 uM by Western blot analysis; format: cell-based
[30] = biological target: Pyruvate kinase PKM (Mus musculus) (UniProt P52480); experiment: Binding affinity to PKM2 in mouse BV-2 cells assessed as thermal stabilization by measuring change in melting temperature incubated for 2 hrs by Western blot analysis; format: cell-based
Mus musculus [31] = experiment: as §1, with “morphine-induced ip dosed” for “morphine-induced”, “jumps” for “jumps at 0.2 microg/kg, ip”; format: functional, organism-based; details: dose 0.2-20 µg/kg, time 45.0 min
BV-2 [32] = experiment: Anti-neuroinflammatory activity in LPS-induced mouse BV-2 cells assessed as reduction in IL-6 mRNA expression by qRT-PCR analysis; format: functional, cell-based; details: dose 1-10 µM
[33] = Tmax in BALB/c mouse brain at 10 mg/kg, po measured upto 4 hrs by mS-HPLC analysis; format: ADME, organism-based
BV-2 [34] = experiment: Anti-neuroinflammatory activity in LPS-induced mouse BV-2 cells assessed as reduction in […] mRNA expression by qRT-PCR analysis; format: functional, cell-based; details: dose 1-10 µM
BV-2 [35] = experiment: Inhibition of LPS-induced PKM2 monomer in mouse BV-2 cells at 10 uM; format: functional, cell-based
[36] = Toxicity in BALB/c mouse assessed as cognitive impairment by measuring time spent on new arm at 20 mg/kg, ip administered once daily for 3 days and measured after 45 mins by Y maze test; format: organism-based; details: in vivo, 72.75 h, time 4365 min
Mus musculus [37] = experiment: Anti-neuroinflammatory activity in morphine-induced BALB/c mouse assessed as decrease in conditioned place preference behavior 0.2 mg/kg, ip pretreated for 6 days followed by morphine induction and measured on days 5 to 9 days; format: functional, organism-based; details: time 11-15 day
BV-2 [38] = experiment: Inhibition of LPS-induced LDHA mRNA overexpression in mouse BV-2 cells at 10 uM incubated for 6 hrs; format: functional, cell-based
BV-2 [39] = experiment: Anti-neuroinflammatory activity in LPS-induced mouse BV-2 cells assessed as formation of amoeboid-shaped cells at 10 uM incubated for 24 hrs by inverted microscopic analysis; format: functional, cell-based
BV-2 [40] = experiment: Inhibition of LPS-induced nuclear translocation in mouse BV-2 cells incubated for 6 hrs by Western blot analysis; format: functional, cell-based
BV-2 [41] = experiment: Anti-neuroinflammatory activity in LPS-induced mouse BV-2 cells assessed as reduction in […] mRNA expression at 10 uM incubated for 24 hrs by qRT-PCR analysis; format: functional, cell-based
[42] = biological target: Pyruvate kinase PKM (Mus musculus) (UniProt P52480); experiment: Activation of PKM2 in mouse BV-2 cells assessed as increase in ATP level at 10 uM measured for 6 hrs; format: cell-based; details: filed as activator
[43] = Toxicity in BALB/c mouse assessed as effect on locomotor activity at 20 mg/kg, ip measured administered once daily for 7 days and measured after 24 hrs by open field test; format: organism-based; details: in vivo, 192 h
[44] = Toxicity in BALB/c mouse assessed as rewarding effect at 20 mg/kg, ip measured after 6 days by CPP analysis; format: organism-based; details: in vivo, 144 h, time 6 day
Mus musculus [45] = experiment: Anti-neuroinflammatory activity in morphine-induced BALB/c mouse assessed as inhibition of IL-1beta expression in VTA region 0.2 mg/kg, ip; format: functional, organism-based
[46] = Toxicity in BALB/c mouse assessed as effect on rubbing behavior at 20 mg/kg, ip measured administered once daily for 7 days and measured after 24 hrs by open field test; format: organism-based; details: in vivo, 192 h
[47] = biological target: Cannabinoid receptor (Homo sapiens) (UniProt P34972+P21554); experiment: Agonist activity at CB1/CB2 (unknown origin) receptor expressed in HEK293 cells assessed as inhibition of forskolin-stimulated cAMP accumulation incubated for 2 hrs by microplate reader analysis; format: functional, cell-based; details: filed as agonist
Cannabinoid receptor (Homo sapiens), sequence (P21554 whole entry, looked up): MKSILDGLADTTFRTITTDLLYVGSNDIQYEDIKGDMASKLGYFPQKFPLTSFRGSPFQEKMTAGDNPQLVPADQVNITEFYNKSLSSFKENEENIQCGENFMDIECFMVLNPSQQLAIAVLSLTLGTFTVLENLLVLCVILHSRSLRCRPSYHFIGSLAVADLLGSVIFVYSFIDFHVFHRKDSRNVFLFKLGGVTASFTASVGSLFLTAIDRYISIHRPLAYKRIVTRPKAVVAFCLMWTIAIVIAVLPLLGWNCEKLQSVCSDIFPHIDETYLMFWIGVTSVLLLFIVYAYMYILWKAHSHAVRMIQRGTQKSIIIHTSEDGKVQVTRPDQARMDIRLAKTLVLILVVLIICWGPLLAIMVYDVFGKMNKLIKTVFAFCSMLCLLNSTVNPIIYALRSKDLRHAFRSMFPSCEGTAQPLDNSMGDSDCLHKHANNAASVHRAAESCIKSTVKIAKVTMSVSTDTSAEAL
Cannabinoid receptor (Homo sapiens), sequence (P34972 whole entry, looked up): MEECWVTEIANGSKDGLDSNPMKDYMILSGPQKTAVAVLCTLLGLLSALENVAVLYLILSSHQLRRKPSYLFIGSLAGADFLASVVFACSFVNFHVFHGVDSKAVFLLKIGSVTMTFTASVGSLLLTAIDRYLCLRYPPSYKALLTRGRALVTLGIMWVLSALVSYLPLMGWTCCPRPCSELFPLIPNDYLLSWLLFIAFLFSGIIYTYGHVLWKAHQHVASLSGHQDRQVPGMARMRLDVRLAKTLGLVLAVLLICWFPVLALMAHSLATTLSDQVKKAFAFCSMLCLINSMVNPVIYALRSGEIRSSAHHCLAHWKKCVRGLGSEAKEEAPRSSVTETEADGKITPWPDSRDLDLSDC

[48] = Toxicity in BALB/c mouse assessed as assessed as effect on body weight at 20 mg/kg, ip measured administered once daily for 7 days and; format: organism-based; details: in vivo, 168 h, time 7 day
BV-2 [49] = experiment: Inhibition of LPS-induced PKM2 tetramer in mouse BV-2 cells at 10 uM; format: functional, cell-based

C=C(C)[C@@H]1CCC(C)=C[C@H]1c1c(O)cc(CCCCC)cc1O [CANNABIDIOL]
Activity (Mus musculus [1]): inactive | Cmax [2]: 98.1 ng/g | MRT [3]: 42 min | Activity (Mus musculus [4]): inactive | AUCt [5]: 66.7 ng·h/g | selectivity ratio [6]: 0.7 | Activity (BV-2 [7]): inactive | IC50 (BV-2 [8]): 12.3 µM | Activity (Mus musculus [9]): inactive | Ratio [10]: < 100% | Activity (BV-2 [11]): inactive | Activity (BV-2 [12]): inactive | IC50 [13]: 8.5 µM | half-life [14]: 30 min

C=C(C)[C@@H]1CCC(C)=C[C@H]1c1c(O)cc(C(C)n2nccn2)cc1O (some centres not stated)
Activity (Mus musculus [15]): Active | Activity [16]: Active | Activity (Mus musculus [1]): Active | inhibition (Mus musculus [17]): Active | Activity (BV-2 [18]): Active | Cmax [2]: 175 ng/g | Kd (Pyruvate kinase PKM): 2.2 µM | MRT [3]: 54 min | Activity (Mus musculus [4]): Active | Tmax [19]: 18 min | inhibition [20]: Active | AUCt [5]: 172.8 ng·h/g | inhibition [21]: Active | inhibition (BV-2 [22]): Active | Activity (BV-2 [23]): Active | Activity (BV-2 [24]): Dose-Dependent Effect | selectivity ratio [6]: 23.1 | Activity (Mus musculus [25]): Active | Activity [26]: Non-Toxic | Activity [27]: Non-Toxic | Activity (Mus musculus [28]): Active | Activity [29]: Active | ΔTm [30]: 3.9 °C | Activity (Mus musculus [31]): Dose-Dependent Effect | Activity (BV-2 [32]): Dose-Dependent Effect | Tmax [33]: 30 min | Activity (BV-2 [34]): Dose-Dependent Effect | IC50 (BV-2 [8]): 2.5 µM | inhibition (BV-2 [35]): Active | Activity [36]: Non-Toxic | Activity (Mus musculus [37]): Active | inhibition (BV-2 [38]): Active | Activity (BV-2 [39]): Active | inhibition (BV-2 [40]): Active | Activity (BV-2 [41]): Active | Ratio [10]: < 200% | Activity [42]: Active | Activity [43]: Non-Toxic | Activity [44]: Non-Toxic | Activity (Mus musculus [45]): Active | Activity [46]: Non-Toxic | Activity [47]: Active | Activity [48]: Non-Toxic | inhibition (BV-2 [49]): Active | IC50 [13]: 57.8 µM | half-life [14]: 48 min

C=C(C)[C@@H]1CCC(C)=C[C@H]1c1c(O)cc(CCCCCC)cc1O
selectivity ratio [6]: 9 | IC50 (BV-2 [8]): 2.1 µM | IC50 [13]: 19 µM

C=CCOc1cc(CCCCC)cc(O)c1[C@@H]1C=C(C)CC[C@H]1C(=C)C
selectivity ratio [6]: 0.7 | IC50 (BV-2 [8]): 59.8 µM | IC50 [13]: 71.5 µM

C=C(C)[C@@H]1CCC(C)=C[C@H]1c1c(O)cc(CCCCCCC)cc1O
selectivity ratio [6]: 0.3 | IC50 (BV-2 [8]): 42 µM | IC50 [13]: 14.1 µM

C=C(C)[C@@H]1CCC(C)=C[C@H]1c1c(O)cc(CCC)cc1O [CANNABIDIVARIN]
selectivity ratio [6]: 3.5 | IC50 (BV-2 [8]): 5.3 µM | IC50 [13]: 18.3 µM
